One series deals with human cystocarcinoma T24. In words: Growth inhibition against human cystocarcinoma T24 cells (MTT). Type of series: cell-based. The note with it: T-24, 72 hours. How it is done: (§1) Growth inhibition against human mammary carcinoma MCF-7, human cystocarcinoma T24, human epidermoid carcinoma A431 and human renal carcinoma ACHN cells:
(§2) Respective cells were dispensed into a 96 well microtiter plate (Nunc #167008) in 1×10^3 cells/well portions in the case of MCF-7 and T24 or in 1.5×lO^3 cells/well portions in the case of A431 and ACHN and cultured at 37° C. for 24 hours in a 5% carbon dioxide incubator. Thereafter, 30 mM of UCS1025A and 30 mM of UCS1025B were each serially diluted and added to the wells in 50 μl portions. The final concentration of each solution becomes 100 μM at the maximum at this stage. They were cultured again at 37° C. for 72 hours in the 5% carbon dioxide incubator. Five hours prior to the completion of the culturing, MTT [3-(4,5-dimethylthiazo-2-yl)-2,5-diphenyltetrazolium bromide, Sigma] which had been dissolved in the culture to a final concentration of 1 mg/ml was dispensed into the plate in 50 μl/well portions. After completion of the culturing, DMSO was dispensed in 150 μl/well portions, and the resulting plate was stirred vigorously using a plate mixer to dissolve MTT-formazan crystals completely. Thereafter, absorbance at 550 nm was measured using a microplate spectrophotometer M-SPmax250 (manufactured by Wako Pure Chemical Industries). The cell growth inhibition activity was shown by the 50% inhibitory concentration IC50

For series [1], the system named is human epidermoid carcinoma A431. In words: Growth inhibition against human epidermoid carcinoma A431 cells (MTT). The series is classed as cell-based. The note with it: A-431, 72 hours. As for the experimental part: as §1, §2
Series [2] concerns Enterococcus hirae ATCC 10541. In words: Antibacterial activity by agar dilution method. The settings on record: ATCC10541, pH 7, read-out: Minimum inhibitory concentration. The series is classed as cell-based. How it is done: (§3) Antibacterial activity of UCS1025A and UCS1025B against various bacteria were measured.
(§4) The antibacterial activity was measured by an agar dilution method on media (pH 7) -composed of 3 g/L of Bacto-tryptone (manufactured by Difco), 3 g/L of meat extract, 1 g/L of yeast extract, 1 g/L of glucose and 16 g/L of agar. The antibacterial activity was shown by minimum inhibitory concentration (MIC).
In general terms: In agar dilution, organisms are placed on agar that contains the substance at set levels.

For series [3], the system named is Proteus vulgaris ATCC 6897. In words: Antibacterial activity by agar dilution method. Type of series: cell-based. The note with it: ATCC6897, pH 7, read-out: Minimum inhibitory concentration. As for the experimental part:
as §3, §4

Series [4] has as its system Staphylococcus aureus ATCC 6538P. In words: Antibacterial activity by agar dilution method. Type of series: cell-based. The note with it: ATCC6538P, pH 7, read-out: Minimum inhibitory concentration. How it is done: as §3, §4
The subject of series [5] is Bacillus subtilis No. 10707. In words: Antibacterial activity by agar dilution method. The series is classed as cell-based. The note with it: pH 7, read-out: Minimum inhibitory concentration. How it is done:
as §3, §4

In series [6] the test system is human renal carcinoma ACHN. In words: Growth inhibition against human renal carcinoma ACHN cells (MTT). The series is classed as cell-based. The note with it: 72 hours. How it is done: as §1, §2
In series [7] the test system is human mammary carcinoma MCF-7. In words: Growth inhibition against human mammary carcinoma MCF-7 cells (MTT). Type of series: cell-based. The note with it: MCF7, 72 hours. How it is done:
as §1, §2

A further series can be described thus: Solubility. The series is classed as physicochemical.
Where [8] appears, read: in methanol, ethyl acetate, chloroform, dimethylsulfoxide (DMSO).

Each structure is given as a SMILES string. Converted amounts (≈) assume the structure as drawn.

Regarding `CC1C=CC2CCCCC2C1C(=O)C1C(=O)N2CCC3C(=O)OC1C32O` (centres unmarked) [UCS1025A], the IC50 – broadly, the concentration that inhibits the measured activity by half – in the series on human cystocarcinoma T24 is 51 µM; in series [1], 55 µM; in [6], 58 µM; in [7] it was 21 µM. In addition, the MIC turned out to be 1.3 µg/mL (≈ 3.62 µM) in series [2], 5.2 µg/mL (≈ 14.5 µM) in series [3], 1.3 µg/mL (≈ 3.62 µM) in series [4] and 1.3 µg/mL (≈ 3.62 µM) in series [5]. In addition, the Solubility result in the series “Solubility” (in hexane) is “hardly soluble”; in “Solubility” (setting [8]), “Soluble”.
As for `CC1C=CC2CCCCC2C1C(=O)C1(O)C(=O)N2CCC3C(=O)OC1C32O` (centres unmarked) [UCS1025B], the IC50 (with human cystocarcinoma T24; in [1]; in series [6]; in series [7]) was greater than 100 µM each time. Moreover, the MIC in series [2] was determined as 42 µg/mL (≈ 112 µM); in series [3], 83 µg/mL (≈ 221 µM); in series [4], 42 µg/mL (≈ 112 µM); in series [5] it was 83 µg/mL (≈ 221 µM). In addition, the figures for the Solubility result in the series “Solubility” (in hexane) and in “Solubility” (setting [8]) were “hardly soluble” and “Soluble”, respectively.

For the origin of these results see US5798379A, “UCS1025 compounds” (Kyowa Hakko Kogyo Co., Ltd., priority 1996, dated 1998).
